Tests used:
[1] = molecular target: Recombinant human CD33 protein (Homo sapiens (Human), UniProt P20138); assay: CD33 competitive binding assay for HTS drug screen (fluorescent multivalent sialic acid probe)
Protocol: This is a competitive binding assay that uses recombinant CD33 immobilized to a plate and a fluorescently-labeled multivalent sialic acid analog as a probe. Binding of drug to the site on CD33 to which sialic acid binds is detected by reduced binding of the fluorescent probe. Recombinant human CD33 protein (for example Acro Biosystems cat #CD3-H5257) was added at a concentration of 10 μg/ml in 20 mM acetate buffer (pH5.5) to a black plastic plate (Corning 4510) and allowed to incubate overnight at 4° C. The next day, the wells were washed 3 times with PBS containing 0.02% Tween-20. This was followed by a 30-minute incubation with PBS containing 0.2% Tween-20 and 0.5% BSA to block non-specific binding to the well. This buffer is removed and replaced with 10 μl of the same buffer, which is also used as the assay buffer. The fluorescent multivalent sialic acid probe was prepared as a 4× concentration as follows. A biotinylated sialic acid analog A-375 was mixed with biotin-4-Fluorescein isothiocyanate (biotin-4-FITC) at a 3:1 molar ratio with final concentrations (4× stock) of 60 μM A-375 and 20 μM biotin-4-FITC. After these were mixed, 20 μM of neutravidin was added, which should form complexes consisting of neutravidin, fluorescein and sialic acid with an average complex consisting of 1 neutravidin, 1 FITC and 3 sialic acid analogs. The multimerization of the sialic acid analog is critical to the assay and improves the affinity of the sialic acid analog several orders of magnitude. A test compound, for example A-001, is added at 5 μl to the 10 μl assay buffer already in the well. After a brief incubation, 5 μl of the 4× stock solution of sialic acid complexes was added. The final concentration of the complexes was therefore 5 μM neutravidin, 15 μM A-375 and 5 μM FITC. The plate was incubated at room temperature for 30 mins and then washed with PBS containing 0.2% Tween-20. Binding of the sialic acid complex is very stable, with an off-rate of several days. Bound complex was then detected using a standard plate reader to quantify FITC fluorescence.

[2] = molecular target: Recombinant Human Siglec-3/CD33 protein (His-CD33) (Homo sapiens (Human), UniProt P20138); assay: Differential scanning fluorimetry (DSF) thermal shift assay; type: binding
Protocol: In the DSF assay, as the temperature increases, the protein gets gradually unfolded, exposing hydrophobic regions in which a fluorescent dye binds causing the fluorescence signal to increase. The midpoint of the unfolding transitions is called the thermal melt (Tm) or denaturation temperature and the Tm was defined as the peak apex in the derivative curve. Here, the Tm temperature of CD33 in the presence and absence of A-001 at a concentration of 50 μM was examined.
Recombinant Human Siglec-3/CD33 protein was purchased from Acros (catalog no. CD3-H5226) and reagents used in this study are shown in the Table 1 below.
Lyophilized CD33 protein was received in 1 mg aliquots from Acros. The protein was diluted with 2.5 mL of sterile water to a concentration of 400 μg/mL (14.5 μM), aliquoted into 138 μL aliquots and stored as at −20° C. On the day of analysis, the protein was thawed and […] solution was diluted to […] using buffer containing 133 mM NaCl, 133 mM phosphate buffered solution and 13.9× Sypro Orange dye in water in a quantity to cover the amount of samples tested on the day of the analysis.
200 μM stock solutions of A-001 containing 0.2% DMSO in water was supplied by compound management in a 384-well plate format.
Sample matrix were prepared by adding 7.5 μL of the protein buffer stock solution followed by addition of 2.5 μL of the 200 μM compound solutions in 384-well PCR plates to give a final volume of 10 μL per well consisting of 0.5 μM CD33 protein, 100 mM phosphate buffered solution pH 7.4, 100 mM NaCl, 10× SYPRO orange dye and 50 μM compound concentration (final DMSO concentration ˜0.2%). Using the Applied Biosystems® Protein Thermal Shift software (algorithm version 1.3.), the denaturation temperature or thermal melt (Tm) of the unbound and ligand bound CD33 protein was automatically assigned and the difference in thermal melt (ΔTm D) was calculated using the derivative curve by the Protein Thermal Shift software.
Recombinant human CD33 protein (0.5 μM) was incubated under buffered conditions in the presence of SYPRO orange dye, a temperature gradient was applied and a thermogram was produced by monitoring the fluorescence. The Tm was defined as the peak apex in the derivative curve in the study. […] Addition of […] of A-001 (Blue lines) to the CD33 protein induced significant Tm increases (ΔTm D) of 12.2±0.7° C.

[3] = thermal melt shift of 0.5 μM CD33 protein with 50 μM compound
[4] = difference in thermal melt of CD33 protein (0.5 μM) with 50 μM compound

Sequence of Recombinant human CD33 protein (P20138 18-259): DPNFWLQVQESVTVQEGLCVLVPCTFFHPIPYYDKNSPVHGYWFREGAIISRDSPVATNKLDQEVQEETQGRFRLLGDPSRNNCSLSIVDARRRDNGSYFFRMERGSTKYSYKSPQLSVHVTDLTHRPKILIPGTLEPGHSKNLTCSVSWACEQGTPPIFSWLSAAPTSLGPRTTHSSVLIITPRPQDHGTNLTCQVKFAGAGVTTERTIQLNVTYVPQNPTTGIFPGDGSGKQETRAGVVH
Sequence of Recombinant Human Siglec-3/CD33 protein (His-CD33) (P20138 18-259): as above

Row | EC50 [1] [nM] | DSF (dTmD) [2, 3] | DSF (dTmD) [2, 4] [°C] | Compound
1 | 363 | 6.3 |  | CC(=O)N[C@H]1[C@H]([C@H](O)[C@H](O)CNC(=O)c2cc(C)c(O)c(C)c2)O[C@@](CCN2CCOC[C@@]23CCN(c2cnccn2)C3)(C(=O)O)C[C@@H]1O [A-040]
2 | > 100000 |  | 0.1 | CC(=O)N[C@H]1[C@H]([C@H](O)[C@H](O)CNC(=O)c2cc(C)c(O)c(C)c2)O[C@@](CCN2CCOC[C@@]23CCN(C(=O)OC(C)(C)C)C3)(C(N)=O)C[C@@H]1O [A-364]
3 | 1500 |  | 4.9 | CC(=O)N[C@H]1[C@H]([C@H](O)[C@H](O)CNC(=O)c2cc(C)c(O)c(C)c2)O[C@@](CC2OC(C)(C)O[C@H]2c2cccc(NC(=O)CC(C)(C)C)c2)(C(=O)O)C[C@@H]1O (stereo partly drawn) [A-303]
4 | 2090 |  | 3.3 | CC(=O)N[C@H]1[C@H]([C@H](O)[C@H](O)CNC(=O)c2cc(C)c(O)c(C)c2)O[C@@](C/C=C/c2cccc(CNC(=O)c3ccc4cn[nH]c4c3)c2)(C(=O)O)C[C@@H]1O [A-235]
5 | 19 | 11.5 |  | CC(=O)N[C@H]1[C@H]([C@H](O)[C@H](O)CNC(=O)c2cc(C)c(O)c(C)c2)O[C@@](CCN2CCOC[C@@]23CCN(C(=O)NC(C)C(F)(F)F)C3)(C(=O)O)C[C@@H]1O (stereo partly drawn) [A-044]
6 | 430 | 8.25 |  | CC(=O)N[C@H]1[C@H]([C@H](O)[C@H](O)CNC(=O)c2cc(C)c(O)c(C)c2)O[C@@](CCN2CCOC[C@@]23CCN(C(=O)C(C)(C)C)C3)(C(=O)O)C[C@@H]1O [A-097]
7 | 11900 |  | 0.0 | CC(=O)N[C@H]1[C@H]([C@H](O)[C@H](O)CNC(=O)c2cc(C)c(O)c(C)c2)O[C@@](CC2OC(C)(C)O[C@H]2c2cccc(CN3CCOCC3)c2)(C(=O)O)C[C@@H]1O (stereo partly drawn) [A-313]
8 | 3820 |  | 5.6 | Cc1cc2cc(C)c1OCCOC[C@@H](NC(=O)C1CCCOC1)COC/C=C/C[C@]1(C(=O)O)C[C@H](O)[C@@H](NC(=O)Cn3cc(C4CCCCC4)nn3)[C@@H](O1)[C@H](O)[C@H](O)CNC2=O (stereo partly drawn) [A-338]
9 | 76 | 12.7 |  | CC(=O)N[C@H]1[C@H]([C@H](O)[C@H](O)CNC(=O)c2ccc3occc3c2)O[C@@](CCN2CCOC[C@@]23CCN(C(=O)OC(C)(C)C)C3)(C(=O)O)C[C@@H]1O [A-137]
10 | 13 | 13.2 |  | CC(=O)N[C@H]1[C@H]([C@H](O)[C@H](O)CNC(=O)c2cc(C)c(O)c(C)c2)O[C@@](CCN2CCOC[C@@]23CCN(C(=O)N[C@@H](C)c2ccccc2)C3)(C(=O)O)C[C@@H]1O [A-043]
11 | 347 |  | 9.2 | CC(=O)N[C@H]1[C@H]([C@H](O)[C@H](O)CNC(=O)c2cc(C)c(O)c(C)c2)O[C@@](C/C=C/c2cccc(CNC(=O)c3ccc4[nH]c(C)c(C)c4c3)c2)(C(=O)O)C[C@@H]1O [A-238]
12 | 262 | 10.6 |  | CC(=O)N[C@H]1[C@H]([C@H](O)[C@H](O)CNC(=O)c2ccc(C(F)(F)F)c(O)c2)O[C@@](CCN2CCOC[C@@]23CCN(C(=O)OC(C)(C)C)C3)(C(=O)O)C[C@@H]1O [A-146]
13 | 3240 |  | 3.5 | CC(=O)N[C@H]1[C@H]([C@H](O)[C@H](O)CNC(=O)c2cc(C)c(O)c(C)c2)O[C@@](CC2OC(C)(C)O[C@H]2c2ccccc2CNC(=O)OC(C)(C)C)(C(=O)O)C[C@@H]1O (stereo partly drawn) [A-310]
14 | 880 | 6.7 |  | C=C[C@H]1CN(C(=O)OC(C)(C)C)C[C@@]1(C)NCC[C@]1(C(=O)O)C[C@H](O)[C@@H](NC(C)=O)[C@H]([C@H](O)[C@H](O)CNC(=O)c2cc(C)c(O)c(C)c2)O1 [A-034]
15 | 162 |  | 7.0 | CC(=O)NC1[C@H]([C@H](O)[C@H](O)CNC(=O)c2cc(C)c(O)c(C)c2)O[C@@](CC(=O)N2CCOC[C@@]23CCN(C(=O)OC(C)(C)C)C3)(C(=O)O)C[C@@H]1O (stereo partly drawn) [A-221]
16 | 35 | 11.4 |  | CC(=O)N[C@H]1[C@H]([C@H](O)[C@H](O)CNC(=O)c2cc(C)c(O)c(C)c2)O[C@@](CCN2CCNC[C@]23CCN(C(=O)OC(C)(C)C)C3)(C(=O)O)C[C@@H]1O [A-013]
17 | 103000 |  | 0.0 | CC(=O)N[C@H]1[C@H]([C@H](O)[C@H](O)CNC(=O)c2cc(C)c(O)c(C)c2)O[C@@](CC2COC(C)(C)O2)(C(=O)O)C[C@@H]1O (stereo partly drawn) [A-307]
18 | 19 | 12.3 |  | CC(=O)N[C@H]1[C@H]([C@H](O)[C@H](O)CNC(=O)c2cc(C)c(O)c(C)c2)O[C@@](CCN2CCN(C(C)=O)C[C@@]23CCN(C(=O)OC(C)(C)C)C3)(C(=O)O)C[C@@H]1O [A-014]
19 | 1630 | 3.9 |  | CC(=O)N[C@H]1[C@H]([C@H](O)[C@H](O)CNC(=O)c2cc(C)c(O)c(C)c2)O[C@@](CCN2CCN(C)C[C@]23CCN(C(=O)OC(C)(C)C)C3)(C(=O)O)C[C@@H]1O [A-011]
20 | 123 |  | 8.9 | CC(=O)NC1[C@H]([C@H](O)[C@H](O)CNC(=O)c2cc(C)c(O)c(C)c2)O[C@@](CC(=O)N2CCOC[C@@]23CCN(C(=O)NC(C)(C)C)C3)(C(=O)O)C[C@@H]1O (stereo partly drawn) [A-223]
21 | 13300 |  | 3.4 | Cc1cc2cc(C)c1OCCCCNC(=O)CCCCCC[C@]1(C(=O)O)C[C@H](O)[C@@H](NC(=O)Cn3cc(C4CCCCC4)nn3)[C@@H](O1)[C@H](O)[C@H](O)CNC2=O [A-346]
22 | 20400 |  | 2.0 | CC(=O)N[C@H]1[C@H]([C@H](O)[C@H](O)CNC(=O)c2cc(C)c(O)c(C)c2)O[C@@](C/C=C/c2cc(CNC(=O)C3CCCOC3)ccc2C)(C(=O)O)C[C@@H]1O (stereo partly drawn) [A-290]
23 | 2680 |  | 5.3 | CC(=O)N[C@H]1[C@H]([C@H](O)[C@H](O)CNC(=O)c2cc(C)c(O)c(C)c2)O[C@@](C/C=C/c2cc(CNC(=O)C3CCCOC3)ccc2C)(C(=O)O)C[C@@H]1O (stereo partly drawn) [A-289]
24 | 30 | 12.2 |  | CC(=O)N[C@H]1[C@H]([C@H](O)[C@H](O)CNC(=O)c2ccc3ncsc3c2)O[C@@](CCN2CCOC[C@@]23CCN(C(=O)OC(C)(C)C)C3)(C(=O)O)C[C@@H]1O [A-110]
25 | 921 | 7.4 |  | CC(=O)N[C@H]1[C@H]([C@H](O)[C@H](O)CNC(=O)c2cc(C)c(O)c(C)c2)O[C@@](CCN2CCOC[C@@]23CCN(C(=O)c2ccccc2)C3)(C(=O)O)C[C@@H]1O [A-101]
26 | 12200 |  | 4.5 | Cc1cc(C(=O)NC[C@@H](O)[C@@H](O)[C@@H]2O[C@@](OC3CCCCC3NC(=O)Cn3cc(-c4ccccc4)nn3)(C(=O)O)C[C@H](O)[C@H]2NC(=O)Cn2cc(C3CCCCC3)nn2)cc(C)c1O (stereo partly drawn) [A-333]
27 |  |  | 9.3 | CC(=O)NC1[C@H]([C@H](O)[C@H](O)CNC(=O)c2cc(C)c(O)c(C)c2)O[C@@](CC(=O)N2CCOC[C@]23CCN(C(=O)OC(C)(C)C)C3)(C(=O)O)C[C@@H]1O (stereo partly drawn) [A-222]
28 |  | −0.3 |  | COC(=O)[C@@]1(CCN2CCOC[C@@]23CCN(C(=O)OC(C)(C)C)C3)C[C@H](O)[C@@H](NC(C)=O)[C@H]([C@H](O)[C@H](O)CNC(=O)c2cc(C)c(O)c(C)c2)O1 [A-002]

— patent publication US20250313574A1, “SIALIC ACID DERIVATIVES AND METHODS OF USING SAME” (EISAI R&D MANAGEMENT CO., LTD., priority 2022, published 2025)
